Data as given in patent US8809265B2, “Methods for treating HCV” (AbbVie Inc., priority 2011, dated 2014).

Experiment: bioequivalence of solid formulations of Compound 2
Type: in vivo
Settings: 250 mg in improved solid formulation (increased binder, e.g. copovidone) versus 400 mg in original formulation
Source text: Accordingly, in one aspect, the present technology features a method of treating HCV infection, comprising administering to a patient in need thereof an effective amount of a combination of two or more DAAs. […] The DAAs can be administered at the same or different dosing frequencies. The patient being treated can be a treatment naïve patient, a treatment experienced patient, including, but not limited to, a relapser, an interferon partial responder, or an interferon non-responder; or a patient unable to take interferon. The patient may be infected with, for example and without limitation, HCV genotype 1, such as HCV genotype 1a or HCV genotype 1b; or HCV genotype 2 or 3. The treatment according to this aspect of the technology may also be effective against other HCV genotypes. The DAAs can be administered around the same time or at different times, and can be co-formulated in a single formulation or formulated in different compositions. Each DAA can be selected from HCV protease inhibitors, HCV polymerase inhibitors, or HCV NS5A inhibitors. […]

In the case of `COc1c(-c2ccc3cc(NS(C)(=O)=O)ccc3c2)cc(-n2ccc(=O)[nH]c2=O)cc1C(C)(C)C` [Compound 2, N-(6-(3-tert-butyl-5-(2,4-dioxo-3,4-dihydropyrimidin-1(2H)-yl)-2-methoxyphenyl)naphthalen-2-yl)methanesulfonamide], the bioequivalence of formulations is reported as “bioequivalent”.
